Here are results for 16 compounds from patent US9290476B2, “Methylene linked quinolinyl modulators of RORγt” (Janssen Pharmaceutica NV, priority 2012, dated 2016).

Where “and” joins values, the source holds several entries; their conditions need not be identical. Identical values can stand only once. Counter-ions that a name gives are not always drawn. Like-named read-outs stand apart in the source and are kept apart here.

Test [1] concerns the target human RORγt ligand binding domain (RORγt LBD) (Homo sapiens (Human), UniProt P51449). The experiment in a line: RORγt ThermoFluor assay (thermal shift binding affinity). As to conditions: estimated from thermal shift. An outline of the steps: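 Thermal shift used 0.065 mg/mL RORγt LBD with 60 μM 1,8-ANS in 100 mM Hepes pH 7.0, 10 mM NaCl, 2.5 mM GSH and 0.002% Tween-20, heated at 1 °C/min. Fluorescence was excited at 380–400 nm and emission read at 500 nm.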

The target of test [2] is human RORγt LBD (Homo sapiens (Human), UniProt P51449). The experiment in a line: RORγt reporter assay (GAL4-RORγt LBD luciferase in HEK293T cells). The test is classed as cell-based. The conditions noted are these: for RORγt reporter Assay, % inhibition @ 6 μM / IC50: HEK293T cells; for IC50: 24 hours compound treatment; for inhibition at 6 µM: HEK-293T, read-out: RORγt reporter Assay, % inhibition @ 6 μM, HEK293T cells, 6 μM. An outline of the steps:
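HEK293T cells transiently co-transfected with GAL4-DBD–wild-type human RORγt LBD (pBIND) and GAL4-responsive firefly luciferase reporter (pGL4.31); renilla luciferase from pBIND normalises transfection/viability. Cells in phenol-red-free DMEM, 5% lipid-reduced FCS, treated with compound 24 h. Firefly/renilla ratio plotted against compound concentration.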
(In a reporter assay the amount or activity of a reporter protein is the signal.)

Test [3] has as its system IL-17 production by CD4 T cells. The experiment in a line: Human Th17 assay (IL-17 production by CD4 T cells under Th17 differentiation). The test is classed as cell-based. The conditions noted are these: human CD4+ T cells, IL-17 after 3 days, read-out: Human Th17 Assay, IC50 μM. The source says:
The human Th17 assay tests the effect of RORγt modulatory compounds on IL-17 production by CD4 T cells under conditions which favor Th17 differentiation.
Total CD4^+ T cells were isolated from the peripheral blood mononuclear cells (PBMC) of healthy donors using a CD4^+ T cell isolation kit II, following the manufacturer's instructions (Miltenyi Biotec). Cells were resuspended in a medium of RPMI-1640 supplemented with 10% fetal bovine serum, penicillin, streptomycin, glutamate, and β-mercaptoethanol and were added to 96-well plates at 1.5×10^5 per 100 μL per well. 50 μL of compound at titrated concentrations in DMSO were added into each well at final DMSO concentration at 0.2%. Cells were incubated for 1 hour, then 50 μL of Th17 cell differentiation medium was added to each well. The final concentrations of antibodies and cytokines (R&D Systems) in differentiation medium were: 3×10^6/mL anti-CD3/CD28 beads (prepared using human T cell activation/expansion kit, Miltenyi Biotec), 10 μg/mL anti-IL4, 10 μg/mL anti-IFNγ, 10 ng/mL IL1β, 10 ng/mL IL23, 50 ng/mL IL6, 3 ng/mL TGFβ and 20 U/mL IL2. Cells were cultured at 37° C. and 5% CO2 for 3 days. Supernatants were collected and the accumulated IL-17 in culture was measured by using MULTI-SPOT® Cytokine Plate following manufacture's instruction (Meso Scale Discovery). The plate was read using Sector Imager 6000, and IL-17 concentration was extrapolated from the standard curve. The IC50s were determined by GraphPad.

Chain of human RORγt LBD (P51449 258-518): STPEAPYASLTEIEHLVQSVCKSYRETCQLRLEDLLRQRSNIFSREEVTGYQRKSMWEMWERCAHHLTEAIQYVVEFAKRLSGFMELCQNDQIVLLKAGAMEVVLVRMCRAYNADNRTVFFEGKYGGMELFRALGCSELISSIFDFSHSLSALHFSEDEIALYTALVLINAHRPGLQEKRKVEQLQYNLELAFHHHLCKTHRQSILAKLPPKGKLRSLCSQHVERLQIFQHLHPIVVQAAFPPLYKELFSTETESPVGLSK
Chain of human RORγt ligand binding domain (RORγt LBD) (P51449 other isoform, or with tags, fused parts or gaps): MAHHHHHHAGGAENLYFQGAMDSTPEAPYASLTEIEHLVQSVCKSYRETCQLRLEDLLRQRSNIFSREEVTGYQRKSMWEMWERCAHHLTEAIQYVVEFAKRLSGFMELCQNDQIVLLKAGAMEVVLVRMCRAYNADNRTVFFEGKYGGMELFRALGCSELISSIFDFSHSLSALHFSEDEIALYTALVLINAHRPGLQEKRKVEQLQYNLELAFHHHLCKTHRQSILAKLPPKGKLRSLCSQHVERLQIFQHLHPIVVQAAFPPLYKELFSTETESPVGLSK

For the compound `COc1nc2ccc(C(O)(c3ccc(C(F)(F)F)nc3)c3cncn3C)cc2c(Cl)c1Cc1ccc(C(F)(F)F)nc1` (single isomer, unassigned) [Example 94C, (4-Chloro-2-methoxy-3-((6-(trifluoromethyl)pyridin-3-yl)methyl)quinolin-6-yl)(1-methyl-1H-imidazol-5-yl)(6-(trifluoromethyl)pyridin-3-yl)methanol], the Kd (usually the concentration at which binding is half-saturated) in test [1] was 0.0065 µM. In test [2], the “RORγt reporter Assay, % inhibition @ 6 μM” value is reported as 95% and the IC50 (commonly the concentration at which inhibition is half-maximal) was found to be 0.16 µM. In addition, in test [3], the IC50 was 0.048 µM.

For `COc1nc2ccc(C(O)(c3ccc(Cl)cc3)c3cncn3C)cc2c(Cl)c1Cc1ccc(S(C)(=O)=O)cc1` (stereo not drawn) [Example 31, (4-Chloro-2-methoxy-3-(4-(methylsulfonyl)benzyl)quinolin-6-yl)(4-chlorophenyl)(1-methyl-1H-imidazol-5-yl)methanol.TFA], the dissociation constant Kd in test [1] was 0.064 µM. Also, in test [2], 0.19 µM corresponded to half-maximal inhibition (IC50) and the inhibition – broadly, the relative decrease from the control value, in per cent – at 6 µM amounted to 103%. The IC50 in test [3] (Homo sapiens, CD4+ T, 72 h) was determined as 0.28 µM.

For `Cc1cc(C(O)(c2ccc(C#N)cc2)c2cncn2C)cc2c(C#N)c(Cc3ccc(-n4cccn4)cc3)c(C#N)nc12` (single isomer, unassigned) [Example 66B, 3-(4-(1H-pyrazol-1-yl)benzyl)-6-((4-cyanophenyl)(hydroxy)(1-methyl-1H-imidazol-5-yl)methyl)-8-methylquinoline-2,4-dicarbonitrile], the dissociation constant (Kd) in test [1] is 0.27 µM. Besides, in test [2], the IC50 worked out at 0.42 µM and the inhibition at 6 µM amounted to 95%. Further, in test [3], the IC50 worked out at 1.1 µM.

Take `CCc1nc2ccc(C(O)(c3cnnn3C)C3CN(C(C)=O)C3)cc2c(Cl)c1Cc1ccc(C(F)(F)F)cc1` (single isomer, unassigned) [Example 90C, 1-(3-((4-Chloro-2-ethyl-3-(4-(trifluoromethyl)benzyl)quinolin-6-yl)(hydroxy)(1-methyl-1H-1,2,3-triazol-5-yl)methyl)azetidin-1-yl)ethanone]: in test [1], the Kd was 0.00032 µM. In addition, in test [2], the “RORγt reporter Assay, % inhibition @ 6 μM” value worked out at 98% and 0.0054 µM corresponded to half-maximal inhibition (IC50). Further, the half-maximal inhibitory concentration (IC50) in test [3] is 0.0061 µM.

Turning to `CN(C)c1ccc(C(O)(c2ccc3nc(Cl)c(Cc4ccc(-n5cccn5)cc4)c(Cl)c3c2)c2cncn2C)cc1` (stereo not drawn) [Example 25, (3-(4-(1H-Pyrazol-1-yl)benzyl)-2,4-dichloroquinolin-6-yl)(4-(dimethylamino)phenyl)(1-methyl-1H-imidazol-5-yl)methanol.TFA], in test [1], the Kd is 0.44 µM. Besides, in test [2], the midpoint of inhibition, the IC50, lay at 0.33 µM and the inhibition at 6 µM came out at 87%. Further, in test [3] (Homo sapiens, CD4+ T, 72 h), the IC50 worked out at 0.38 µM.

In the case of `Cn1cncc1C(O)(c1ccc(C(F)(F)F)nc1)c1ccc2nc(Cl)c(Cc3ccc(-n4cccn4)cc3)c(Cl)c2c1` (stereo not drawn) [Example 23, (3-(4-(1H-Pyrazol-1-yl)benzyl)-2,4-dichloroquinolin-6-yl)(1-methyl-1H-imidazol-5-yl)(6-(trifluoromethyl)pyridin-3-yl)methanol.TFA], the dissociation constant (Kd) in test [1] is 0.004 µM. For the same compound, the IC50 stood at 0.014 µM in test [2] and 0.15 µM in test [3] (Homo sapiens, CD4+ T, 72 h). In addition, the inhibition at 6 µM in test [2] is 95%.

As for `COc1nc2ccc(C(N)(c3ccc(C)nc3C)c3cnnn3C)cc2c(Cl)c1Cc1ccc(C(F)(F)F)cc1` (single isomer, unassigned) [Example 87C, (4-Chloro-2-methoxy-3-(4-(trifluoromethyl)benzyl)quinolin-6-yl)(2,6-dimethylpyridin-3-yl)(1-methyl-1H-1,2,3-triazol-5-yl)methanamine], the Kd in test [1] was 0.0013 µM. For the same compound, in test [2], the “RORγt reporter Assay, % inhibition @ 6 μM” value is 99% and 0.012 µM corresponded to half-maximal inhibition (IC50). Besides, the IC50 in test [3] (Homo sapiens, CD4+ T, 72 h) came out at 0.0045 µM.

On to `COc1nc2ccc(C(O)(c3ccccc3)C3CCN(C(C)=O)CC3)cc2c(Cl)c1Cc1ccc(-n2cccn2)cc1` (single isomer, unassigned) [Example 83B, 1-(4-((3-(4-(1H-Pyrazol-1-yl)benzyl)-4-chloro-2-methoxyquinolin-6-yl)(hydroxy)(phenyl)methyl)piperidin-1-yl)ethanone], for which the Kd in test [1] was 0.0047 µM. For the same compound, in test [2], the IC50 is 0.024 µM and ~0.07 µM; the inhibition at 6 µM was found to be 100%. The IC50 in test [3] was 0.016 µM.

With `COc1nc2ccc(C(O)(c3cnnn3C)c3cnc(C)n3C)cc2c(C#N)c1Cc1ccc(C(F)(F)F)cc1` (single isomer, unassigned) [Example 81C, 6-((1,2-Dimethyl-1H-imidazol-5-yl)(hydroxy)(1-methyl-1H-1,2,3-triazol-5-yl)methyl)-2-methoxy-3-(4-(trifluoromethyl)benzyl)quinoline-4-carbonitrile], the Kd in test [1] was 0.00012 µM. Also, the “RORγt reporter Assay, % inhibition @ 6 μM” value in test [2] turned out to be 103%. Further, the IC50 in test [3] worked out at 0.002 µM.

Turning to `COc1nc2ccc(C(O)(c3ccc(C(F)(F)F)nc3)c3cncn3C)cc2c(Cl)c1Cc1cc2ccccc2s1` (stereo not drawn) [Example 37A, (3-(Benzo[b]thiophen-2-ylmethyl)-4-chloro-2-methoxyquinolin-6-yl)(1-methyl-1H-imidazol-5-yl)(6-(trifluoromethyl)pyridin-3-yl)methanol.TFA], the Kd in test [1] was 0.0078 µM. Besides, in test [2], the midpoint of inhibition, the IC50, lay at 0.028 µM and the inhibition at 6 µM turned out to be 100%. For the same compound, the IC50 in test [3] (Homo sapiens, CD4+ T, 72 h) came to 0.12 µM.

As for `Cn1cncc1C(O)(c1ccc(Cl)cc1)c1ccc2nc(Cl)c(Cc3ccccc3)c(Cl)c2c1` (stereo not drawn) [Example 1, (3-Benzyl-2,4-dichloroquinolin-6-yl)(4-chlorophenyl)(1-methyl-1H-imidazol-5-yl)methanol], the Kd in test [1] is 0.018 µM. Moreover, the IC50 in test [2] is 0.35 µM; in test [3] (Homo sapiens, CD4+ T, 72 h) it was 0.59 µM. In test [2], the inhibition at 6 µM is 72%.

`OC(c1cccnc1)(c1cccc(Cl)c1)c1ccc2nc(Cl)c(Cc3ccc(-n4cccn4)cc3)c(Cl)c2c1` (stereo not drawn) [Example 5, (3-(4-(1H-Pyrazol-1-yl)benzyl)-2,4-dichloroquinolin-6-yl)(3-chlorophenyl)(pyridin-3-yl)methanol.TFA]: in test [1], the Kd was 0.011 µM. In addition, the IC50 in test [2] amounted to 0.057 µM; in test [3] (Homo sapiens, CD4+ T, 72 h), 0.066 µM. Moreover, the inhibition at 6 µM in test [2] was 117%.

For the compound `Cn1cncc1C(O)(c1ccc(Cl)cc1)c1ccc2nc(C#N)c(Cc3ccc(-n4cccn4)cc3)c(C#N)c2c1` (single isomer, unassigned) [Example 71C, 3-(4-(1H-Pyrazol-1-yl)benzyl)-6-((4-chlorophenyl)(hydroxy)(1-methyl-1H-imidazol-5-yl)methyl)quinoline-2,4-dicarbonitrile], the Kd in test [1] is 0.13 µM. The “RORγt reporter Assay, % inhibition @ 6 μM” value in test [2] was found to be 103%. The values for the IC50 in test [2] and in test [3] were 0.26 µM and 0.3 µM, respectively.

Consider `COc1nc2ccc(C(O)(c3ccc(C#N)cc3)c3cncn3C)cc2c(C#N)c1Cc1ccc(C(F)(F)F)cc1` (single isomer, unassigned) [Example 96C, 6-((4-cyanophenyl)(hydroxy)(1-methyl-1H-imidazol-5-yl)methyl)-2-methoxy-3-(4-(trifluoromethyl)benzyl)quinoline-4-carbonitrile], for which, in test [1], the Kd was 0.0022 µM. Further, in test [2], the “RORγt reporter Assay, % inhibition @ 6 μM” value is recorded as 97% and the IC50 amounted to 0.018 µM. The IC50 in test [3] worked out at 0.0045 µM.

As to `COc1nc2c(OC)cc(C(O)(c3ccc(C(F)(F)F)nc3)c3cncn3C)cc2c(Cl)c1Cc1ccc(-n2cccn2)cc1` (single isomer, unassigned) [Example 59B, (3-(4-(1H-pyrazol-1-yl)benzyl)-4-chloro-2,8-dimethoxyquinolin-6-yl)(1-methyl-1H-imidazol-5-yl)(6-(trifluoromethyl)pyridin-3-yl)methanol], the Kd in test [1] is 0.0044 µM. In addition, in test [2], the IC50 was 0.14 µM and the inhibition at 6 µM stood at 106%. In test [3] (Homo sapiens, CD4+ T, 72 h), the IC50 worked out at 0.098 µM.

Turning to `OC(c1ccc(Cl)cc1)(c1cccnc1)c1ccc2nc(Cl)c(Cc3ccc(-n4cccn4)cc3)c(Cl)c2c1` (stereo not drawn) [Example 45, (3-(4-(1H-Pyrazol-1-yl)benzyl)-2,4-dichloroquinolin-6-yl)(4-chlorophenyl)(pyridin-3-yl)methanol], the Kd in test [1] is 0.068 µM. Also, in test [2], the IC50 stood at 0.13 µM and the inhibition at 6 µM stood at 103%. For the same compound, the half-maximal inhibitory concentration (IC50) in test [3] (Homo sapiens, CD4+ T, 72 h) came to 0.1 µM.
